Assay results taken from patent US20200016136A1 (VIIV HEALTHCARE UK (NO. 5) LIMITED, priority 2017, published 2020).
pEC50: −log10 of the molar value.

Each compound was assayed on NL-RLuc virus (recombinant NL4-3 HIV with Renilla Luciferase gene) (assay: Inhibition of HIV replication (NL-RLuc virus in MT-2 cells, luciferase readout)). Settings: MT2, 120 h.
Format: cell-based, Human immunodeficiency virus (HIV)
Outline: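 EC50 derived via median effect equation from at least 2 experiments, using luciferase expression as virus-growth readout. Replication-competent NL-RLuc reporter virus (nef partly replaced by Renilla luciferase) infected MT-2 cells with serial compound dilutions; 5-day incubation in RPMI 1640 plus 10% FBS.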

Compound | pEC50
Cc1cccc(Cl)c1CN1CCc2cc(-c3c(CNCCCCc4ccccc4)nc(C)c([C@H](OC(C)(C)C)C(=O)O)c3N3CCC(C)(C)CC3)ccc2C1 [Example 155, (S)-2-(tert-Butoxy)-2-(5-(2-(2-chloro-6-methylbenzyl)-1,2,3,4-tetrahydroisoquinolin-6-yl)-4-(4,4-dimethylpiperidin-1-yl)-2-methyl-6-(((4-phenylbutyl)amino)methyl)pyridin-3-yl)acetic Acid] | 7.26
Cc1cccc(Cl)c1CN1CCc2cc(-c3c(CNCCCCCc4ccccc4)nc(C)c([C@H](OC(C)(C)C)C(=O)O)c3N3CCC(C)(C)CC3)ccc2C1 [Example 156, (S)-2-(tert-Butoxy)-2-(5-(2-(2-chloro-6-methylbenzyl)-1,2,3,4-tetrahydroisoquinolin-6-yl)-4-(4,4-dimethylpiperidin-1-yl)-2-methyl-6-(((5-phenylpentyl)amino)methyl)pyridin-3-yl)acetic Acid] | 7.19
Cc1cccc(Cl)c1CN1CCc2cc(-c3c(CNCCCCCCc4ccccc4)nc(C)c([C@H](OC(C)(C)C)C(=O)O)c3N3CCC(C)(C)CC3)ccc2C1 [Example 157, (S)-2-(tert-Butoxy)-2-(5-(2-(2-chloro-6-methylbenzyl)-1,2,3,4-tetrahydroisoquinolin-6-yl)-4-(4,4-dimethylpiperidin-1-yl)-2-methyl-6-(((6-phenylhexyl)amino)methyl)pyridin-3-yl)acetic Acid] | 6.47
Cc1cccc(Cl)c1CN1CCc2cc(-c3c(CF)nc(C)c([C@H](OC(C)(C)C)C(=O)O)c3N3CCC(C)(C)CC3)ccc2C1 [Example 158, (S)-2-(tert-Butoxy)-2-(5-(2-(2-chloro-6-methylbenzyl)-1,2,3,4-tetrahydroisoquinolin-6-yl)-4-(4,4-dimethylpiperidin-1-yl)-6-(fluoromethyl)-2-methylpyridin-3-yl)acetic Acid] | 8.30
Cc1nc(CN2CCC3(CCC3)CC2)c(-c2ccc3c(c2)CCN(c2ncnc4c2oc2ccccc24)C3)c(N2CCC(C)(C)CC2)c1[C@H](OC(C)(C)C)C(=O)O [Example 159, (S)-2-(6-(7-Azaspiro[3.5]nonan-7-ylmethyl)-5-(2-(benzofuro[3,2-d]pyrimidin-4-yl)-1,2,3,4-tetrahydroisoquinolin-6-yl)-4-(4,4-dimethylpiperidin-1-yl)-2-methylpyridin-3-yl)-2-(tert-butoxy)acetic Acid] | 9.00
Cc1nc(CN2CCC2)c(-c2ccc3c(c2)CCN(c2ncnc4c2oc2ccccc24)C3)c(N2CCC(C)(C)CC2)c1[C@H](OC(C)(C)C)C(=O)O [Example 160, (S)-2-(6-(Azetidin-1-ylmethyl)-5-(2-(benzofuro[3,2-d]pyrimidin-4-yl)-1,2,3,4-tetrahydroisoquinolin-6-yl)-4-(4,4-dimethylpiperidin-1-yl)-2-methylpyridin-3-yl)-2-(tert-butoxy)acetic Acid] | 7.70
Cc1nc(CN2CCC(C)(C)CC2)c(-c2ccc3c(c2)CCN(c2ncnc4c2oc2ccccc24)C3)c(N2CCC(C)(C)CC2)c1[C@H](OC(C)(C)C)C(=O)O [Example 161, (S)-2-(5-(2-(Benzofuro[3,2-d]pyrimidin-4-yl)-1,2,3,4-tetrahydroisoquinolin-6-yl)-4-(4,4-dimethylpiperidin-1-yl)-6-((4,4-dimethylpiperidin-1-yl)methyl)-2-methylpyridin-3-yl)-2-(tert-butoxy)acetic Acid] | 9.00
CC1(C)CCN(c2c(-c3ccc4c(c3)CCN(c3nccc(-c5cnccn5)n3)C4)c(N)nc(Cl)c2[C@H](OC(C)(C)C)C(=O)O)CC1 [Example 163, (S)-2-(6-Amino-2-chloro-4-(4,4-dimethylpiperidin-1-yl)-5-(2-(4-(pyrazin-2-yl)pyrimidin-2-yl)-1,2,3,4-tetrahydroisoquinolin-6-yl)pyridin-3-yl)-2-(tert-butoxy)acetic Acid] | 8.52
Cc1nc(CO)c(-c2ccc3c(c2)CCN(c2nccc(-c4cccnc4)n2)C3)c(N2CCC(C)(C)CC2)c1[C@H](OC(C)(C)C)C(=O)O [Example 164, (S)-2-(tert-Butoxy)-2-(4-(4,4-dimethylpiperidin-1-yl)-6-(hydroxymethyl)-2-methyl-5-(2-(4-(pyridin-3-yl)pyrimidin-2-yl)-1,2,3,4-tetrahydroisoquinolin-6-yl)pyridin-3-yl)acetic Acid] | 8.70
Cc1nc(CO)c(-c2ccc3c(c2)CCN(c2nccc(-c4cnccn4)n2)C3)c(N2CCC(C)(C)CC2)c1[C@H](OC(C)(C)C)C(=O)O [Example 165, (S)-2-(tert-Butoxy)-2-(4-(4,4-dimethylpiperidin-1-yl)-6-(hydroxymethyl)-2-methyl-5-(2-(4-(pyrazin-2-yl)pyrimidin-2-yl)-1,2,3,4-tetrahydroisoquinolin-6-yl)pyridin-3-yl)acetic Acid] | 8.70
Cc1nc(CN2CCC3(CCC3)CC2)c(-c2ccc3c(c2)CCN(c2nccc(-c4cnccn4)n2)C3)c(N2CCC(C)(C)CC2)c1[C@H](OC(C)(C)C)C(=O)O [Example 166, (S)-2-(6-(7-Azaspiro[3.5]nonan-7-ylmethyl)-4-(4,4-dimethylpiperidin-1-yl)-2-methyl-5-(2-(4-(pyrazin-2-yl)pyrimidin-2-yl)-1,2,3,4-tetrahydroisoquinolin-6-yl)pyridin-3-yl)-2-(tert-butoxy)acetic Acid] | 9.22
CC1(C)CCN(c2c(-c3ccc4c(c3)CCN(c3nccc(N5CCOCC5)n3)C4)c(N)nc(Cl)c2[C@H](OC(C)(C)C)C(=O)O)CC1 [Example 167, (S)-2-(6-Amino-2-chloro-4-(4,4-dimethylpiperidin-1-yl)-5-(2-(4-morpholinopyrimidin-2-yl)-1,2,3,4-tetrahydroisoquinolin-6-yl)pyridin-3-yl)-2-(tert-butoxy)acetic Acid] | 8.40
